The values that follow come from US20060046972A1, “Cytotoxic nucleoside analog compound 003 for treating cancer” (Parker Hughes Institute, priority 2004, published 2006).

The data set in a line: Acute toxicity of intraperitoneal bolus doses in CD-1 mice. Format: in vivo. To be noted: female, CD-1, mouse, in vivo, ip; single i.p. bolus; not reached at highest dose. The procedure: 1.2.8 Animals Female CD-1 mice (Body weight: ˜25 g; Age: 7 week old) were purchased, from Charles River Laboratories (Willmington, Mass., USA). MMTV Neu-mice [FVB/N-TgN(MMTV neu)202MUL; Jackson Laboratory, Bar Harbor, Me.] were bred to produce multiple litters. All mice were housed in microisolator cages (Lab Products, Inc., Maywood, N.Y., USA) containing autoclaved bedding in a controlled specific pathogen-free (SPF) environment (12-h light/12-h dark photoperiod, 22±1° C., 60±10% relative humidity), which is fully accredited by the USDA (United States Department of Agriculture). Adult male Lewis rats (Body weight: ˜160 g) were obtained from the specific pathogen-free (SPF) breeding facilities of Harlan Sprague Dawley (Indianapolis, Id., USA) at 14 weeks of age. All husbandry and experimental contact made with the mice and rats maintained SPF conditions. The rats were kept in microisolater cages (Allentown Caging Equipment Co., Inc., Allentown, N.J., USA) containing autoclaved food, water, and bedding. Animal studies were approved by Parker Hughes Institute Animal Care and Use Committee and all animal care procedures 1.5 conformed to the Guide for the Care and Use of Laboratory Animals (National Research Council, National Academy Press, Washington D.C. 1996, USA).
The toxicity profile of Compound 003 in CD-1 mice and Lewis rats was examined, using standard procedures as previously reported for other experimental drugs (Uckun, et al., 2003, Arzneimittelforschun. 53:357; Uckun, et al., 2002, Clin Cancer Res. 8: 1224; Uckun, et al., 2002, Antimicrob Agents Chemother. 46:3428). In brief, mice and rats were treated with intraperitoneal injections of vehicle or Compound 003 at multiple dose levels. Compound 003 was administered as a 0.2 mL (for mice) or 0.5 mL (for rats) bolus injection containing 10% DMSO as a vehicle. Animals were allowed free access to autoclaved standard pellet food and tap water throughout the experiments and monitored daily for morbidity and mortality. Animals were electively sacrificed on day 7 or day 30 to determine the toxicity of Compound 003 by examining their blood chemistry profiles, blood counts, and evaluating multiple organs for the presence of toxic lesions. Blood was collected by intracardiac puncture following anesthesia with ketamine:xylazine and immediately heparinized. The blood chemistry profiles were examined using a Synchron CX5CE Chemical Analyzer (Beckman Instruments, Inc., Fullerton, Calif., USA). Blood counts (red blood cells [RBC], white blood cells [WBC] and platelets [Plt]) were determined using a HESKA Vet ABC-Diff Hematology Analyzer (HESKA Corporation, Fort Collins, Colo., USA). Absolute neutrophil counts (ANC) and absolute lymphocyte counts (ALC) were calculated from WBC values after determining the percentages of neutrophils and lymphocytes by a manual differential count. At the time of necropsy, […] from mice (bone, bone marrow, brain, cecum, heart, kidney, large intestine, liver, lung, lymph node, ovary, pancreas, skeletal muscle, skin, small intestine, spleen, stomach, thymus, thyroid gland, urinary bladder, and uterus, as available) and 21 different tissues from rats (bone, bone marrow, brain, coagulating gland, epididymis, heart, large intestine, small intestine, kidney, liver, lung, pancreas, peripheral nerve/spinal nerve, skeletal muscle, skin, spinal cord, spleen, stomach, testes, thymus, urinary bladder) were collected within 15 minutes after sacrifice, gross pathological findings were documented, organs were preserved in 10% neutral phosphate buffered formalin, and processed for histopathological examination. For histopathologic studies, formalin fixed tissues were dehydrated and embedded in paraffin by routine methods. Glass slides with affixed 4-5 micron tissue sections were prepared and stained with Hemotoxylin and Eosin (H&E). […]

Turning to `COC(=O)C(C)NP(=O)(OCC1OC(n2cc(C)c(=O)[nH]c2=O)CC1N=[N+]=[N-])Oc1ccc(OC)cc1` (stereo not shown) [Compound 003, 3′-azidothymidine 5′-[p-methoxyphenylmethoxyalaninyl phosphate]], the LD50 was > 80 mg/kg.
